# From patent US11059795B2, “Androgen receptor modulators and methods for their use” (ESSA Pharma, Inc., priority 2018, dated 2021)
# Experiments:
# androgen receptor (AR) = biological target: T1, androgen receptor (AR) (Homo sapiens, UniProt P10275, T878A); assay: Androgen-induced PSA (6.1 kb)-luciferase reporter assay in LNCaP cells; assay type: cell-based; settings: LNCaP cells transfected with PSA (6.1 kb)-luciferase reporter, R1881 1 nM, 24 h; read-out: PSA-Luc IC50 Range
# T1 construct: LNCaP cells were transiently transfected with the PSA (6.1 kb)-luciferase reporter for 24 h; endogenous in cells; host or cells: LNCaP
# T1 sequence (P10275 1-920 T878A): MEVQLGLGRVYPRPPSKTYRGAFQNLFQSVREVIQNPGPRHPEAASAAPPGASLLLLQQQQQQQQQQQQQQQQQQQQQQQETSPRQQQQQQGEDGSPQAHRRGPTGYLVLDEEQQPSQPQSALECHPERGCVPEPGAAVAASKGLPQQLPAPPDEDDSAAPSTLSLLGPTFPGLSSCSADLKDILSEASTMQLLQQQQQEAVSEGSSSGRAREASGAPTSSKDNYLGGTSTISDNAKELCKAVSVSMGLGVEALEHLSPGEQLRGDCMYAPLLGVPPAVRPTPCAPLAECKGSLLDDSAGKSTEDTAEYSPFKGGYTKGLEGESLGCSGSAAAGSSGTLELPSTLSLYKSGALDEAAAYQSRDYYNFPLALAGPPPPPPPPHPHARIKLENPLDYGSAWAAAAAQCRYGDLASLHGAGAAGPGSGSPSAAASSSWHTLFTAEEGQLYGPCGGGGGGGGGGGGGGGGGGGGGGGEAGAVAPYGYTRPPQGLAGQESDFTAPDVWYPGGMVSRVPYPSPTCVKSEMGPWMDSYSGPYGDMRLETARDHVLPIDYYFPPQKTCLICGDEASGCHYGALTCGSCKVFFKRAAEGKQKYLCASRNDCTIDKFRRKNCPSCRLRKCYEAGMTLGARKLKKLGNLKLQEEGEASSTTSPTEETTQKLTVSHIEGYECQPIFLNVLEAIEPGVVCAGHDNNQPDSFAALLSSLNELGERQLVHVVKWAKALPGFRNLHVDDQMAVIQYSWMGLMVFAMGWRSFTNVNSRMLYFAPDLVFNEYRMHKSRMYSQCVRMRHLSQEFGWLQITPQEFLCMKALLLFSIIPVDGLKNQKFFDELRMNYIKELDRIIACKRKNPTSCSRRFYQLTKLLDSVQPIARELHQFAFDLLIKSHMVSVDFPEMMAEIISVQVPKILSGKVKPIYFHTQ
# In short: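 Read-out is firefly luminescence (10 s) in LNCaP lysates, normalized to protein, from an ARE-containing PSA (6.1 kb)-luciferase reporter driven by androgen.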
# [1] = Microsomal stability assay, mouse liver microsomes; assay type: in vitro ADME; settings: 1 μM compound, 0.5 mg/mL protein, 37° C.; for microsomal CLint at 1 μM: mouse, liver microsomes, pH 7.4, mouse liver microsomes, read-out: MLM +30/− NADPH: Clint (μL/min/mg protein)
# In short: (§1)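 Compound at 1 μM was incubated at 37° C with 0.5 mg/mL liver microsomes and 1 mM NADPH and/or 1 mM UDPGA (with alamethicin) in 100 mM potassium phosphate pH 7.4, 3 mM MgCl2. Samples were taken at 0, 15, 30 and 60 min and measured by LC/MS/MS. t½ came from compound loss relative to 0 min, and Clint was scaled with 45 mg microsomal protein/g liver.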
# [2] = Hepatocyte stability assay, mouse hepatocytes; assay type: in vitro ADME; settings: 1 μM compound, 0.5 million cells/mL, 37° C.; for hepatocyte CLint at 1 μM: mouse, cryopreserved hepatocytes, read-out: MH +/− NADPH: Clint (μL/min/million cells)
# Text: The […] of in vitro intrinsic clearance (Clint) for drug candidates in the early discovery stage is common practice in the pharmaceutical industry. The Clint values of drug candidates can help to confirm whether metabolism is the main clearance pathway when it is compared with the total body clearance in vivo. Hepatocytes are among the routinely used in vitro systems for measuring clearance. Hepatocytes have been reported to retain most of the phase I and phase II metabolic activities, and therefore, it is a useful tool to estimate the intrinsic clearance for potential drug candidates.
# Metabolic stability of testing compound were be evaluated using human and mouse hepatocytes and can also be use rat, mouse, or other animal hepatocytes to predict intrinsic clearance. Cryopreserved hepatocytes were removed from the liquid nitrogen tank and thawed in a 37° C. water bath. As soon as the cells pulled away from the vial wall, they were decanted into 48 ml of warm HT medium. Cells were centrifuged for four minutes at 420 rpm (50 g). After removing the supernatant, pellet was re-suspended in warm DMEM medium. Cell density was counted by a hemacytometer.
# The assay was carried out in 96-well microtiter plates. Compounds were incubated for 0, 60, 120, and 180 minutes at 37° C. with hepatocytes. Reaction mixtures (50 μL) contained a final concentration of 1 μM test compound, 0.5 million cells/mL hepatocytes in the DMEM medium. At each of the time points (for example, 0, 1, 2, and 3 hours), 200 μL of quench solution (100% acetonitrile with 0.1% formic acid) with internal standard was transferred to each well. Midazolam was included as a positive control to verify assay performance. Plates were sealed and centrifuged at 4° C. for 15 minutes at 4000 rpm. The supernatant is transferred to fresh plates for LC/MS/MS analysis.
# Summarized conditions (customizable): [Compound]=[…], Positive control: midazolam and/or naloxone, [Hepatocyte]=0.5 million cells/Ml, time=0, 60, 120, and 180 min, t=37° C.
# All samples were analyzed on LC/MS/MS using an AB Sciex API 4000 instrument, coupled to a Shimadzu LC-20AD LC Pump system. Analytical samples were separated using a Waters Atlantis T3 dC18 reverse phase HPLC column (20 mm×2.1 mm) at a flow rate of 0.5 mL/min. The mobile phase consisted of 0.1% formic acid in water (solvent A) and 0.1% formic acid in 100% acetonitrile (solvent B).
# The extent of metabolism was calculated as the disappearance of the test compound, compared to the 0-min control reaction incubations. Initial rates were calculated for the compound concentration and used to determine t½ values and subsequently, the intrinsic clearance, Clint. Clint=(0.693)(1/t½(min))(mL incubation/million cells)
# [3] = Microsomal stability assay, human liver microsomes; assay type: in vitro ADME; settings: pH 7.4, 1 μM compound, 0.5 mg/mL protein, 37° C., read-out: HLM +/− NADPH: Clint (μL/min/mg protein)
# In short: as §1
Compound,IC50 (androgen receptor (AR)) [nM],microsomal CLint at 1 μM [1] [µL/min/mg],hepatocyte CLint at 1 μM [2] [µL/min/1e6 cells],microsomal CLint at 1 μM [3] [µL/min/mg],MLM +30/− NADPH: Clint (μL/min/mg protein) ([1]; mouse liver microsomes),MH +/− NADPH: Clint (μL/min/million cells) [2]
CC(C)(c1ccc(OCc2nnccc2NS(C)(=O)=O)cc1)c1cc(Cl)c(OCCCl)c(C#N)c1 [Compound A101],500 to 2000,12 to 48,4 to 18,≥ 48,–,–
CC(C)(c1ccc(OCc2ncc(S(C)(=O)=O)[nH]2)cc1)c1cc(Cl)c(OCCCl)c(C#N)c1 [Compound A94],500 to 2000,12 to 48,4 to 18,12 to 48,–,–
CC(=O)Nc1nccc(C(C)Oc2ccc(C(C)(C)c3cc(Cl)c(OCCCl)c(C#N)c3)cc2)n1 (stereo not drawn) [Compound A145],500 to 2000,≥ 48,≥ 18,≥ 48,–,–
CC(C)(c1ccc(OCc2coc(S(C)(=O)=O)c2)cc1)c1cc(Cl)c(OCCCl)c(C#N)c1 [Compound A208],< 500,< 12,< 4,< 12,–,–
CC(Oc1ccc(C(C)(C)c2cc(Cl)c(OCCCl)c(C#N)c2)cc1)c1ncc(S(C)(=O)=O)o1 (stereo not drawn) [Compound A90],500 to 2000,≥ 48,≥ 18,< 12,–,–
[2H]c1c([2H])c(C(C)(C)c2cc(Cl)c(OCCCl)c(C#N)c2)c([2H])c([2H])c1OCc1ccnc(NS(C)(=O)=O)n1 [Compound A201],500 to 2000,< 12,< 4,< 12,–,–
"CC(C)(c1ccc(OCc2nccc(NS(C)(=O)=O)n2)cc1)c1cc(Cl)c(OCCCl)c(C#N)c1 [Compound A184, N-(2-((4-(2-(3-chloro-4-(2-chloroethoxy)-5-cyanophenyl)propan-2-yl)phenoxy)methyl)pyrimidin-4-yl)methanesulfonamide]",> 2000,< 12,< 4,< 12,–,–
CC(C)(c1ccc(OCc2[nH]cnc2S(C)(=O)=O)cc1)c1cc(Cl)c(OCCCl)c(Cl)c1 [Compound A71],500 to 2000,< 12,4 to 18,12 to 48,–,–
CC(C)S(=O)(=O)Nc1nc(COc2ccc(C(C)(C)c3cc(Cl)c(OCCCl)c(C#N)c3)cc2)co1 [Compound A132],500 to 2000,< 12,< 4,< 12,–,–
CC(C)(c1ccc(OCc2ncc(S(C)(=O)=O)o2)cc1)c1cc(Cl)c(OCCCl)c(C#N)c1 [Compound A153],500 to 2000,12 to 48,4 to 18,< 12,–,–
Cc1cc(C(C)(C)c2ccc(OC(C)c3ocnc3S(C)(=O)=O)cc2)cc(C#N)c1OCCCl (stereo not drawn) [Compound A88],500 to 2000,≥ 48,≥ 18,≥ 48,–,–
CC(C)(c1ccc(OCc2nccnc2NS(C)(=O)=O)cc1)c1cc(Cl)c(OCCCl)c(C#N)c1 [Compound A103],< 500,–,–,12 to 48,** (** represents Cl in the range of 12-48 μL/min/mg protein),*** (*** represent Cl < 4 cells μL/min/million cells)
CC(C)(c1ccc(OCc2cnc(C(N)=O)o2)cc1)c1cc(Cl)c(CCCCl)c(C#N)c1 [Compound A114],500 to 2000,12 to 48,≥ 18,< 12,–,–
CC(C)(c1ccc(OCc2cnc(NS(C)(=O)=O)cn2)cc1)c1cc(Cl)c(OCCCl)c(C#N)c1 [Compound A197],500 to 2000,< 12,< 4,< 12,–,–
Cc1cc(C(C)(C)c2ccc(OC(C)c3scnc3S(C)(=O)=O)cc2)cc(C#N)c1OCCCl (stereo not drawn) [Compound A70],< 500,≥ 48,4 to 18,12 to 48,–,–
CC(C)(c1ccc(OCc2coc(N)n2)cc1)c1cc(Cl)c(OCCCl)c(C#N)c1 [Compound A155],< 500,≥ 48,4 to 18,12 to 48,–,–
CC(C)(c1ccc(OCc2ncc(NS(C)(=O)=O)s2)cc1)c1cc(Cl)c(OCCCl)c(C#N)c1 [Compound A135],< 500,12 to 48,≥ 18,12 to 48,–,–
"CC(C)(c1ccc(OCc2ccc(S(C)(=O)=O)o2)cc1)c1cc(Cl)c(OCCCl)c(C#N)c1 [Compound A168, 3-chloro-2-(2-chloroethoxy)-5-(2-(4-((5-(methylsulfonyl)furan-2-yl)methoxy)phenyl)propan-2-yl)benzonitrile]",< 500,< 12,4 to 18,< 12,–,–
